{
  "source": "patent US12696900B2",
  "about": "“Crop enhancement” (SYNGENTA CROP PROTECTION AG, priority 2020, dated 2026)",
  "key": {"[1]": {"system": "Corn seeds (var. NK Falkone)", "test": "Corn germination test (24 well plates, kinetic analysis of germination)", "format": "in vivo", "conditions": "for Plateau of Germination (total percentage of germinated seeds), Sign. / Time taken to reach 50% germination of corn, Sign. / Uniformity of Germination (slope of the curve), Sign.: significance vs untreated, p<0.05, ns=not significant; for Plateau of Germination (total percentage of germinated seeds), total % of germinated seeds / Time taken to reach 50% germination of corn, Relative T50 / Uniformity of Germination (slope of the curve), Relative slope: untreated = 100", "procedure": "Corn seeds (var. NK Falkone, Syngenta Seeds SAS, St. Sauveur, France) were sorted by size using a sieve to eliminate round seeds. The corn seeds were placed in 24 well plates (1 seed per well; each plate was considered as one experimental unit or replicate). Germination was initiated by the addition of 250 μl of distilled water containing 0.5% dimethyl sulfoxide (DMSO) to each well (with isocycloseram present at a concentration of either 1, 5, 25 or 125 μM). 8 replicates (i.e. 8 plates) were used for each treatment characterisation. The plates were sealed using seal foil (Polyolefin Art. Nr. 900320) from HJ-BIOANALYTIK. All plates were placed in a climatic chamber at either 15° C. or 23° C., with 60% Relative Humidity. The experiment was laid out in a completely randomized design. Germination was followed over time by taking photographs at different time points. Image analysis was performed automatically with a macro which was developed using the Image J software. A kinetic analysis of germination was carried out by fitting a trend curve. Three parameters were calculated from the trend curve: the T50 (time taken for 50% germination; related to speed of germination); the slope of the curve (the uniformity of germination) and the plateau (the total percentage of germinated seeds). […] The results are expressed in terms of percentage in comparison to the control (untreated seeds) for each temperature group respectively. The results were analysed statistically to highlight significant differences (p<0.05). (Key: Sign.=significance; ns=not significant)\nAll three parameters have a high agronomical relevance. Significant differences between treated seeds and untreated control are given at p<0.05 (Anova). T50 corresponds to the time needed for half of the seed population to germinate; lower values indicate faster germination. Slope indicates how synchronous the germination of the seed population is; values greater than 100 indicate a steeper curve. The steeper the curve, the better and more uniform the germination is. […] At the two highest rates, the speed of germination (T50) was faster at both temperatures, indicating a positive impact on germination speed."}, "[2]": {"system": "Wheat seeds (winter wheat variety Syllon)", "test": "Wheat germination test under increased salinity (salt stress)", "format": "in vivo", "conditions": "for Time taken to reach 50% germination of wheat, Sign. / Time taken to reach 50% germination of wheat, Relative T50: increased salinity, 12.5 mM NaCl solution, 23° C.; for Time taken to reach 50% germination of wheat, Sign.: significance vs untreated, p<0.05; for Time taken to reach 50% germination of wheat, Relative T50: untreated = 100", "procedure": "Wheat seeds (winter wheat variety Syllon, Syngenta Seeds) were placed in 24 well plates (1 seed per well, each plate was considered as one experimental unit or replicate). […] Subsequently, a salt solution was prepared at this concentration and spiked with the test compound at different rates as shown below in Table 3, and the germination test was repeated under salt stress. Eight replicates (i.e. 8 plates) were used for each treatment. Plates were sealed with seal foil (Polyolefin Art. Nr. 900320) from HJ-BIOANALYTIK. All plates were placed in a climatic chamber at 23° C. with 70% Relative Humidity. The experiment was laid out in a completely randomized design. Germination was followed over time by taking photographs at different time points. Image analysis was performed automatically with a macro which was developed using the Image J software. A kinetic analysis of germination was carried out by fitting a trend curve. Three parameters were calculated from the trend curve: the T50 (time taken for 50% germination; speed of germination); the slope of the curve (the uniformity of germination) and the plateau (the total percentage of germinated seeds). […] The results are expressed in terms of percentage in comparison to the check (untreated seeds) and the results are analysed statistically to highlight significant differences (p<0.05). (Key: Sign.=significance)\nT50 corresponds to the time needed for half of the seed population to germinate and is a germination parameter of high agronomical relevance. Significant differences between treated seeds and untreated control are given at p<0.05 (Anova). Lower values indicate faster germination."}, "[3]": {"conditions": "15° C. (cold conditions), isocycloseram 1 μM"}, "[4]": {"conditions": "15° C. (cold conditions), isocycloseram 5 μM"}, "[5]": {"conditions": "15° C. (cold conditions), isocycloseram 25 μM"}, "[6]": {"conditions": "15° C. (cold conditions), isocycloseram 125 μM"}, "[7]": {"conditions": "23° C. (normal conditions), isocycloseram 1 μM"}, "[8]": {"conditions": "23° C. (normal conditions), isocycloseram 5 μM"}, "[9]": {"conditions": "23° C. (normal conditions), isocycloseram 25 μM"}, "[10]": {"conditions": "23° C. (normal conditions), isocycloseram 125 μM"}},
  "data": [
    {"smiles": "CCN1OCC(NC(=O)c2ccc(C3=NOC(c4cc(Cl)c(F)c(Cl)c4)(C(F)(F)F)C3)cc2C)C1=O", "note": "(stereo not shown) [Isocycloseram, isocycloseram]", "values": [
      {"measurement": "Plateau of Germination (total percentage of germinated seeds), Sign.", "setting": "[1]; [3]", "result": "ns"},
      {"measurement": "Time taken to reach 50% germination of corn, Sign.", "setting": "[1]; [3]", "result": "ns"},
      {"measurement": "Uniformity of Germination (slope of the curve), Sign.", "setting": "[1]; [3]", "result": "ns"},
      {"measurement": "Plateau of Germination (total percentage of germinated seeds), total % of germinated seeds", "setting": "[1]; [3]", "result": "103 percentage in comparison to the control"},
      {"measurement": "Time taken to reach 50% germination of corn, Relative T50", "setting": "[1]; [3]", "result": "99.67 percentage in comparison to the control"},
      {"measurement": "Uniformity of Germination (slope of the curve), Relative slope", "setting": "[1]; [3]", "result": "100 percentage in comparison to the control"},
      {"measurement": "Plateau of Germination (total percentage of germinated seeds), Sign.", "setting": "[1]; [4]", "result": "higher"},
      {"measurement": "Time taken to reach 50% germination of corn, Sign.", "setting": "[1]; [4]", "result": "ns"},
      {"measurement": "Uniformity of Germination (slope of the curve), Sign.", "setting": "[1]; [4]", "result": "ns"},
      {"measurement": "Plateau of Germination (total percentage of germinated seeds), total % of germinated seeds", "setting": "[1]; [4]", "result": "105 percentage in comparison to the control"},
      {"measurement": "Time taken to reach 50% germination of corn, Relative T50", "setting": "[1]; [4]", "result": "101.73 percentage in comparison to the control"},
      {"measurement": "Uniformity of Germination (slope of the curve), Relative slope", "setting": "[1]; [4]", "result": "98 percentage in comparison to the control"},
      {"measurement": "Plateau of Germination (total percentage of germinated seeds), Sign.", "setting": "[1]; [5]", "result": "higher"},
      {"measurement": "Time taken to reach 50% germination of corn, Sign.", "setting": "[1]; [5]", "result": "Faster"},
      {"measurement": "Uniformity of Germination (slope of the curve), Sign.", "setting": "[1]; [5]", "result": "more"},
      {"measurement": "Plateau of Germination (total percentage of germinated seeds), total % of germinated seeds", "setting": "[1]; [5]", "result": "106 percentage in comparison to the control"},
      {"measurement": "Time taken to reach 50% germination of corn, Relative T50", "setting": "[1]; [5]", "result": "93.1 percentage in comparison to the control"},
      {"measurement": "Uniformity of Germination (slope of the curve), Relative slope", "setting": "[1]; [5]", "result": "233 percentage in comparison to the control"},
      {"measurement": "Plateau of Germination (total percentage of germinated seeds), Sign.", "setting": "[1]; [6]", "result": "higher"},
      {"measurement": "Time taken to reach 50% germination of corn, Sign.", "setting": "[1]; [6]", "result": "Faster"},
      {"measurement": "Uniformity of Germination (slope of the curve), Sign.", "setting": "[1]; [6]", "result": "more"},
      {"measurement": "Plateau of Germination (total percentage of germinated seeds), total % of germinated seeds", "setting": "[1]; [6]", "result": "105 percentage in comparison to the control"},
      {"measurement": "Time taken to reach 50% germination of corn, Relative T50", "setting": "[1]; [6]", "result": "90.61 percentage in comparison to the control"},
      {"measurement": "Uniformity of Germination (slope of the curve), Relative slope", "setting": "[1]; [6]", "result": "191 percentage in comparison to the control"},
      {"measurement": "Plateau of Germination (total percentage of germinated seeds), Sign.", "setting": "[1]; [7]", "result": "ns"},
      {"measurement": "Time taken to reach 50% germination of corn, Sign.", "setting": "[1]; [7]", "result": "Slower"},
      {"measurement": "Uniformity of Germination (slope of the curve), Sign.", "setting": "[1]; [7]", "result": "less"},
      {"measurement": "Plateau of Germination (total percentage of germinated seeds), total % of germinated seeds", "setting": "[1]; [7]", "result": "103.63 percentage in comparison to the control"},
      {"measurement": "Time taken to reach 50% germination of corn, Relative T50", "setting": "[1]; [7]", "result": "107.32 percentage in comparison to the control"},
      {"measurement": "Uniformity of Germination (slope of the curve), Relative slope", "setting": "[1]; [7]", "result": "80.22 percentage in comparison to the control"},
      {"measurement": "Plateau of Germination (total percentage of germinated seeds), Sign.", "setting": "[1]; [8]", "result": "ns"},
      {"measurement": "Time taken to reach 50% germination of corn, Sign.", "setting": "[1]; [8]", "result": "Slower"},
      {"measurement": "Uniformity of Germination (slope of the curve), Sign.", "setting": "[1]; [8]", "result": "ns"},
      {"measurement": "Plateau of Germination (total percentage of germinated seeds), total % of germinated seeds", "setting": "[1]; [8]", "result": "103.63 percentage in comparison to the control"},
      {"measurement": "Time taken to reach 50% germination of corn, Relative T50", "setting": "[1]; [8]", "result": "105.17 percentage in comparison to the control"},
      {"measurement": "Uniformity of Germination (slope of the curve), Relative slope", "setting": "[1]; [8]", "result": "93.8 percentage in comparison to the control"},
      {"measurement": "Plateau of Germination (total percentage of germinated seeds), Sign.", "setting": "[1]; [9]", "result": "higher"},
      {"measurement": "Time taken to reach 50% germination of corn, Sign.", "setting": "[1]; [9]", "result": "Faster"},
      {"measurement": "Uniformity of Germination (slope of the curve), Sign.", "setting": "[1]; [9]", "result": "more"},
      {"measurement": "Plateau of Germination (total percentage of germinated seeds), total % of germinated seeds", "setting": "[1]; [9]", "result": "105.39 percentage in comparison to the control"},
      {"measurement": "Time taken to reach 50% germination of corn, Relative T50", "setting": "[1]; [9]", "result": "95.22 percentage in comparison to the control"},
      {"measurement": "Uniformity of Germination (slope of the curve), Relative slope", "setting": "[1]; [9]", "result": "133.81 percentage in comparison to the control"},
      {"measurement": "Plateau of Germination (total percentage of germinated seeds), Sign.", "setting": "[1]; [10]", "result": "ns"},
      {"measurement": "Time taken to reach 50% germination of corn, Sign.", "setting": "[1]; [10]", "result": "Faster"},
      {"measurement": "Uniformity of Germination (slope of the curve), Sign.", "setting": "[1]; [10]", "result": "more"},
      {"measurement": "Plateau of Germination (total percentage of germinated seeds), total % of germinated seeds", "setting": "[1]; [10]", "result": "100.7 percentage in comparison to the control"},
      {"measurement": "Time taken to reach 50% germination of corn, Relative T50", "setting": "[1]; [10]", "result": "92.47 percentage in comparison to the control"},
      {"measurement": "Uniformity of Germination (slope of the curve), Relative slope", "setting": "[1]; [10]", "result": "176.64 percentage in comparison to the control"},
      {"measurement": "changes in germination rate and uniformity (corn)", "setting": "[1]; isocycloseram 1, 5, 25 and 125 μM, 15° C. or 23° C., especially under the colder conditions and higher concentrations", "result": "significant changes in germination rate and uniformity"},
      {"measurement": "effect on corn seed germination kinetics", "setting": "[1]; low temperature (15° C.)", "result": "consistent effect"},
      {"measurement": "effect on wheat seed germination kinetics", "setting": "[2]; increased salinity (salt stress)", "result": "consistent effect"},
      {"measurement": "Time taken to reach 50% germination of wheat, Sign.", "setting": "[2]; isocycloseram 1 μM", "result": "Faster"},
      {"measurement": "Time taken to reach 50% germination of wheat, Relative T50", "setting": "[2]; isocycloseram 1 μM", "result": "95.27 percentage in comparison to the check"},
      {"measurement": "Time taken to reach 50% germination of wheat, Sign.", "setting": "[2]; isocycloseram 5 μM", "result": "Faster"},
      {"measurement": "Time taken to reach 50% germination of wheat, Relative T50", "setting": "[2]; isocycloseram 5 μM", "result": "94.70 percentage in comparison to the check"},
      {"measurement": "Time taken to reach 50% germination of wheat, Sign.", "setting": "[2]; isocycloseram 25 μM", "result": "Faster"},
      {"measurement": "Time taken to reach 50% germination of wheat, Relative T50", "setting": "[2]; isocycloseram 25 μM", "result": "93.07 percentage in comparison to the check"},
      {"measurement": "changes in germination speed (wheat)", "setting": "[2]; isocycloseram 1, 5, and 25 μM, salt stress, 12.5 mM NaCl", "result": "significant changes in germination speed"}
    ]}
  ]
}
